Experimental data reported in US20250064886A1, “CARDIOVASCULAR AND CEREBROVASCULAR DRUG AND USE THEREOF” (HANGZHOU ADAMERCK PHARMLABS INC., priority 2021, published 2025).
Marks after values point to notes of the source that are not given here.

What was measured:
[1] = tested on: Erastin-induced neuronal cells; assay: Cell viability (CCK8) of Erastin-induced neuronal cells (Example 8); type: cell-based, rat; settings: for Cell viability (%): Erastin 50 μM
Experimental: (§1) Experimental method: Primary neuron cells were incubated in a medium containing Erastin (final concentration of 50 μM) for 24 hours, and then incubated in a medium containing different concentrations of the test drug and Erastin (final concentration of 50 μM) for another 24 hours. After incubation, Real time PCR was used to detect mRNA expression of GPX4 in each group of cells, CCK8 assay was used to detect cell viability in each group of cells, C11-BODIPY probe method was used to detect intracellular lipid ROS levels in each group of cells, and PGSK probe method was used to detect iron content in cells.
(§2) The experimental data were expressed in means±SD, and statistical differences between groups were determined using one-way ANOVA and Tukey's test, with p-values less than 0.05 considered significant.
After incubation, the CCK8 experiment was used to detect the cell viability of each group of cells. The results were presented as Mean±SD. Compared with control group, ***p<0.0001. Compared with model control group, ^#P<0.05, ^##P<0.01.

[2] = tested on: iron content in Erastin-induced neuronal cells; assay: Iron content (PGSK probe) in Erastin-induced neuronal cells (Example 8); type: cell-based, rat; settings: Erastin 50 μM
Experimental: as §1, §2
After incubation, the PGSK probe method was used to detect the intracellular iron content. The results were presented as Mean±SD. Compared with the control group, ***p<0.0001; Compared with the model group, #p<0.05, ##p<0.01.

[3] = tested on: lipid ROS levels in Erastin-induced nerve cells; assay: Lipid ROS levels (C11-BODIPY probe) in Erastin-induced nerve cells (Example 8); type: cell-based, rat; settings: Erastin 50 μM
Experimental: as §1, §2
After incubation, the C11-BODIPY probe method was used to detect the lipid ROS levels in each group of cells. The results were presented as Mean±SD. Compared with the control group, ***p<0.0001; compared with the model group, #p<0.05, ##p<0.01.

[4] = tested on: vascular inflammation in high-glucose and high-fat zebrafish; assay: Regressive effect on vascular inflammation in high-glucose and high-fat zebrafish (Example 9); type: in vivo
Experimental: Experimental method: 360 tails of 5 dpf macrophage fluorescent zebrafish were randomly selected and placed in beakers with 30 tails in each beaker, compound (1), compound (3), and compound (5) were given intravenously, and the positive control group was given atorvastatin calcium by dissolving it in water at a concentration of 30 μg/mL, while the normal control group (fish farming water-treated zebrafish) and the model control group were set up, and the volume of each beaker (experimental group) was 25 mL. Except for the normal control group, all other groups were given high-lipids and high-sucrose feed by dissolving it in water. Compound (1), compound (3) and compound (5) group were co-treated with high-lipids and high-sucrose feed for 30 h. The treatment was carried out up to 9 dpf, and 10 zebrafish were randomly selected from each experimental group to collect the intensity of the macrophage fluorescence within the tail vein and around the tail vein of the zebrafish under fluorescence microscope, and the results of the statistical analysis were used to evaluate the regressive effect of compound (1), compound (3), compound (5) on zebrafish vascular inflammation in the high sugar and high fat model.

[5] = tested on: vascular endothelial injury induced thrombosis model in zebrafish; assay: Preventative effect on vascular endothelial injury induced thrombosis, ponatinib zebrafish model (Example 1); type: in vivo; settings: 4.00 ng/tail injected
Experimental: Experimental method: 420 tails of 5 dpf wild type AB strain zebrafish were randomly selected and placed in a six-well plate, with 30 fish per well (experimental group). The fish were injected with compound (1), compound (2), compound (3), compound (4), compound (5), compound (6), compound (7), compound (8), compound (9), compound (10), and compound (11) (structural formula shown in Table 1) at a dose of 4.00 ng/tail, with positive control drug acetylsalicylic acid being administered by dissolving it in water at a concentration of 30.0 µg/mL. Normal control group (i.e. zebrafish treated with standard diluted water) and model control group were set up, with a capacity of 3 mL per well (experimental group). Except for normal control group, the remaining experimental groups were all given Punatinib by dissolving it in water to induce vascular endothelial injury induced thrombosis model in zebrafish. The zebrafish were stained with o-dianisidine after co-treatment with ponatinib and samples for a period of time under incubation conditions at 28° C.
After staining, 10 zebrafish in each group were randomly selected and photographed under the microscope, and the intensity of cardiac erythrocyte staining in zebrafish was analyzed using NIS-Elements D 3.20 advanced image-processing software, and the samples were evaluated for the preventative effect on vascular endothelial injury induced thrombosis by the statistical results of cardiac erythrocyte staining intensity.
The preventative effect on thrombosis is calculated as follows: […]
Statistical analysis was performed using SPSS software, and p<0.05 indicates significant differences

[6] = tested on: GPX4 mRNA; assay: GPX4 mRNA expression (real time PCR) in Erastin-induced neuronal cells (Example 8); type: cell-based, rat; settings: Erastin 50 μM
Experimental: as §1, §2
After incubation, real time PCR was used to detect the mRNA expression of GPX4 in each group of cells. The results were presented as Mean±SD. Compared with the control group, ***p<0.0001; Compared with the model group, #p<0.05, […].

SMILES: CC(=O)N[C@H](CSCC1OC2OC3C(CSC[C@@H](NC(C)=O)C(=O)[O-])OC(OC4C(CSC[C@@H](NC(C)=O)C(=O)[O-])OC(OC5C(CSC[C@@H](NC(C)=O)C(=O)[O-])OC(OC6C(CSC[C@@H](NC(C)=O)C(=O)[O-])OC(OC7C(CSC[C@@H](NC(C)=O)C(=O)[O-])OC(OC1C(O)C2O)C(O)C7O)C(O)C6O)C(O)C5O)C(O)C4O)C(O)C3O)C(=O)[O-].[Na+].[Na+].[Na+].[Na+].[Na+].[Na+] (stereo partly drawn) [Compound (3)]
- Cell viability (%) ([1]; 1 μM, 24 h, control = 100, Mean±SD): 52.87 ± 2.55%
- Cell viability (%) ([1]; 2.5 μM): 56.6 ± 4.76%
- Cell viability (%) ([1]; 5 μM): 62.52 ± 8.51%
- Cell viability (%) ([1]; 10 μM): 66.77 ± 6.27%
- Cell viability (%) ([1]; 20 μM): 73.21 ± 8.1^# %
- Cell viability (%) ([1]; 40 μM): 77.95 ± 6.34^## %
- Concentration above which cell viability was significantly increased compared with the model group ([1]; p<0.05): greater than 10 μM
- Iron content (PGSK probe) ([2]; 1 μM, control = 100, PGSK fluorescence, weaker = more iron): 56.48 ± 3.32^
- Iron content (PGSK probe) ([2]; 2.5 μM): 62.3 ± 7
- Iron content (PGSK probe) ([2]; 5 μM): 67.06 ± 11.62
- Iron content (PGSK probe) ([2]; 10 μM): 71.61 ± 9.86^
- Iron content (PGSK probe) ([2]; 20 μM): 76.67 ± 7.25^#
- Iron content (PGSK probe) ([2]; 40 μM): 83.81 ± 9.91^##
- Lipid ROS levels (%) ([3]; 1 μM, control = 100, Mean±SD): 146.56 ± 7.67%
- Lipid ROS levels (%) ([3]; 2.5 μM): 141.34 ± 4.22%
- Lipid ROS levels (%) ([3]; 5 μM): 136.81 ± 7.9%
- Lipid ROS levels (%) ([3]; 10 μM): 132.38 ± 2.23%
- Lipid ROS levels (%) ([3]; 20 μM): 125.33 ± 9.79^# %
- Lipid ROS levels (%) ([3]; 40 μM): 120.37 ± 10.16^## %
- Anti-inflammatory effect (%) ([4]; 11.1 ng/tail intravenous): 38*** %
- Fluorescence intensity of perivascular macrophage (pixels, Mean ± SE) ([4]; 11.1 ng/tail intravenous): 113809 ± 7995 pixels
- Anti-inflammatory effect (%) ([4]; 33.3 ng/tail intravenous): 36*** %
- Fluorescence intensity of perivascular macrophage (pixels, Mean ± SE) ([4]; 33.3 ng/tail intravenous): 118747 ± 6434 pixels
- Anti-inflammatory effect (%) ([4]; 100 ng/tail intravenous): 36*** %
- Fluorescence intensity of perivascular macrophage (pixels, Mean ± SE) ([4]; 100 ng/tail intravenous): 118504 ± 10539 pixels
- Preventative effect on thrombosis (%) [5]: 17%
- Cardiac erythrocyte staining intensity (pixels, mean ± SE) ([5]; n = 10): 3045 ± 219 pixels
- Cardiac erythrocyte staining intensity (pixels, mean ± SE) ([5]; n = 10, listed as compound (3)): 3045 pixels
- Expression of GPX4 mRNA ([6]; 1 μM, control about 1.00, Mean±SD): 0.4359 ± 0.05
- Expression of GPX4 mRNA ([6]; 2.5 μM): 0.4875 ± 0.01
- Expression of GPX4 mRNA ([6]; 5 μM): 0.5407 ± 0.06
- Expression of GPX4 mRNA ([6]; 10 μM): 0.6152 ± 0.07^##
- Expression of GPX4 mRNA ([6]; 20 μM): 0.6765 ± 0.07^##
- Expression of GPX4 mRNA ([6]; 40 μM): 0.7421 ± 0.08^##

SMILES: O=S(=O)(O)CCCCOCC1OC2OC3C(COCCCCS(=O)(=O)O)OC(OC4C(COCCCCS(=O)(=O)O)OC(OC5C(COCCCCS(=O)(=O)O)OC(OC6C(COCCCCS(=O)(=O)O)OC(OC7C(COCCCCS(=O)(=O)O)OC(OC8C(COCCCCS(=O)(=O)O)OC(OC1C(O)C2O)C(O)C8O)C(O)C7O)C(O)C6O)C(O)C5O)C(O)C4O)C(O)C3O (stereo not drawn) [Compound (11)]
- Preventative effect on thrombosis (%) [5]: 79%
- Cardiac erythrocyte staining intensity (pixels, mean ± SE) ([5]; n = 10): 4749 ± 12 pixels
- Cardiac erythrocyte staining intensity (pixels, mean ± SE) ([5]; n = 10, listed as compound (11)): 4749 pixels

SMILES: CC(C)c1c(C(=O)Nc2ccccc2)c(-c2ccccc2)c(-c2ccc(F)cc2)n1CC[C@@H](O)C[C@@H](O)CC(=O)[O-].CC(C)c1c(C(=O)Nc2ccccc2)c(-c2ccccc2)c(-c2ccc(F)cc2)n1CC[C@@H](O)C[C@@H](O)CC(=O)[O-].[Ca+2] [Atorvastatin calcium, atorvastatin calcium, reference compound]
- Anti-inflammatory effect (%) ([4]; 30 μg/mL in water): 42*** %
- Fluorescence intensity of perivascular macrophage (pixels, Mean ± SE) ([4]; 30 μg/mL in water, n = 10): 106352 ± 6663 pixels
